{"source": "patent US6159963A", "about": "“Method for treating substance abuse” (Eli Lilly and Company, priority 1996, dated 2000)", "key": {"[1]": {"test_system": "muscarinic cholinergic receptor", "assay": "pharmacological studies, muscarinic cholinergic receptor activity"}, "5-HT1C receptor": {"test_system": "5-HT1C receptor", "assay": "pharmacological studies, 5-HT1C receptor activity"}, "patients": {"test_system": "patients", "assay": "double-blind multicenter clinical trial, olanzapine versus placebo", "assay_type": "in vivo, human", "details": "patients randomized to olanzapine or placebo", "from_the_text": "A double-blind multicenter clinical trial was designed to assess the safety and efficacy of olanzapine. Patients were randomized to olanzapine or placebo."}}, "data": [{"smiles": "Cc1cc2c(s1)Nc1ccccc1N=C2N1CCN(C)CC1", "note": "[olanzapine, 2-methyl-4-(4-methyl-1-piperazinyl)-10H-thieno[2,3-b][1,5]benzodiazepine]", "values": [{"measurement": "muscarinic cholinergic receptor activity", "setting": "[1]", "value": "has muscarinic cholinergic receptor activity"}, {"measurement": "activity at the 5-HT1C receptor", "setting": "5-HT1C receptor", "value": "active"}, {"measurement": "usefulness for treatment of addictive substance withdrawal (clinical observations)", "setting": "patients", "value": "can be useful for the treatment of addictive substance withdrawal"}]}]}
